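Compound exposure: 48 hours, 5 concentrations, 96-well plates. At the GI50, growth is halved.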 The source made the active and inactive calls. No stated cut-off is given here; in the data, active = GI50 up to about 1.1 µM and inactive = higher.
Assays:
Assay in all cases: NCI tumour cell line growth inhibition, 48 h
SF-539 = tested on: SF-539
SW-620 = tested on: SW-620
RXF 393 = tested on: RXF 393
SNB-75 = tested on: SNB-75
KM12 = tested on: KM12
MDA-MB-231 = tested on: MDA-MB-231
NCI-H23 = tested on: NCI-H23
A549 = tested on: A549
NCI-H522 = tested on: NCI-H522
TK-10 = tested on: TK-10
UACC-257 = tested on: UACC-257
NCI/ADR-RES = tested on: NCI/ADR-RES
SF-295 = tested on: SF-295
UACC-62 = tested on: UACC-62
HCT-116 = tested on: HCT-116
RPMI-8226 = tested on: RPMI-8226
MDA-N = tested on: MDA-N
CCRF-CEM = tested on: CCRF-CEM
ACHN = tested on: ACHN
MDA-MB-435 = tested on: MDA-MB-435
DU-145 = tested on: DU-145
OVCAR-3 = tested on: OVCAR-3
HOP-62 = tested on: HOP-62
786-0 = tested on: 786-0
CAKI-1 = tested on: CAKI-1
UO-31 = tested on: UO-31
HCT-15 = tested on: HCT-15
COLO 205 = tested on: COLO 205
NCI-H226 = tested on: NCI-H226
MCF7 = tested on: MCF7
MOLT-4 = tested on: MOLT-4
EKVX = tested on: EKVX
K562 = tested on: K562
HT-29 = tested on: HT-29
OVCAR-8 = tested on: OVCAR-8
HL-60 = tested on: HL-60
NCI-H460 = tested on: NCI-H460
SK-OV-3 = tested on: SK-OV-3
BT-549 = tested on: BT-549
OVCAR-4 = tested on: OVCAR-4
SF-268 = tested on: SF-268
SK-MEL-2 = tested on: SK-MEL-2
SN12C = tested on: SN12C
U-251 = tested on: U-251
Malme-3M = tested on: Malme-3M
M14 = tested on: M14
OVCAR-5 = tested on: OVCAR-5
SK-MEL-5 = tested on: SK-MEL-5
IGROV-1 = tested on: IGROV-1
SNB-19 = tested on: SNB-19
PC-3 = tested on: PC-3
LOX IMVI = tested on: LOX IMVI
Hs-578T = tested on: Hs-578T
SK-MEL-28 = tested on: SK-MEL-28
HOP-92 = tested on: HOP-92
A498 = tested on: A498
HCC 2998 = tested on: HCC 2998
SR = tested on: SR
T47D = tested on: T47D

COC1OC2COC(=O)c3cc(O)c(O)c(O)c3-c3c(cc(O)c(O)c3O)C(=O)OC2C(O)C1O (stereo not given)
GI50 (SF-539): > 100 µM (inactive)
GI50 (SW-620): 21.7 µM (inactive)
GI50 (RXF 393): > 100 µM (inactive)
GI50 (SNB-75): 62.8 µM (inactive)
GI50 (KM12): > 100 µM (inactive)
GI50 (MDA-MB-231): > 100 µM (inactive)
GI50 (NCI-H23): > 100 µM (inactive)
GI50 (A549): 72.6 µM (inactive)
GI50 (NCI-H522): 94.8 µM (inactive)
GI50 (TK-10): > 100 µM (inactive)
GI50 (UACC-257): > 100 µM (inactive)
GI50 (NCI/ADR-RES): > 100 µM (inactive)
GI50 (SF-295): 18.9 µM (inactive)
GI50 (UACC-62): 21.4 µM (inactive)
GI50 (HCT-116): 34.9 µM (inactive)
GI50 (RPMI-8226): 55.7 µM (inactive)
GI50 (MDA-N): 24 µM (inactive)
GI50 (CCRF-CEM): 37.3 µM (inactive)
GI50 (ACHN): 77.8 µM (inactive)
GI50 (MDA-MB-435): 30.5 µM (inactive)
GI50 (DU-145): > 100 µM (inactive)
GI50 (OVCAR-3): 80 µM (inactive)
GI50 (HOP-62): 53 µM (inactive)
GI50 (786-0): 47.4 µM (inactive)
GI50 (CAKI-1): 63.8 µM (inactive)
GI50 (UO-31): > 100 µM (inactive)
GI50 (HCT-15): > 100 µM
GI50 (COLO 205): 54.1 µM (inactive)
GI50 (NCI-H226): > 100 µM (inactive)
GI50 (MCF7): 42.6 µM (inactive)
GI50 (MOLT-4): 28.6 µM (inactive)
GI50 (EKVX): > 100 µM (inactive)
GI50 (K562): 36.4 µM (inactive)
GI50 (HT-29): 34.4 µM (inactive)
GI50 (OVCAR-8): 54.1 µM (inactive)
GI50 (HL-60): > 10 µM (inactive)
GI50 (NCI-H460): 45.3 µM (inactive)
GI50 (SK-OV-3): > 100 µM (inactive)
GI50 (BT-549): > 100 µM (inactive)
GI50 (OVCAR-4): 31.5 µM (inactive)
GI50 (SF-268): 64 µM (inactive)
GI50 (SK-MEL-2): 84.5 µM (inactive)
GI50 (SN12C): 16.5 µM (inactive)
GI50 (U-251): 61.2 µM (inactive)
GI50 (Malme-3M): > 100 µM (inactive)
GI50 (M14): 43.9 µM (inactive)
GI50 (OVCAR-5): 53.8 µM (inactive)
GI50 (SK-MEL-5): 84.7 µM (inactive)
GI50 (IGROV-1): > 100 µM (inactive)
GI50 (SNB-19): > 100 µM (inactive)
GI50 (PC-3): > 100 µM (inactive)
GI50 (LOX IMVI): 23.2 µM (inactive)
GI50 (Hs-578T): > 100 µM (inactive)
GI50 (SK-MEL-28): > 100 µM (inactive)

CC1=CC(=O)/C(=C/NC(=S)c2ccncc2)C(=O)O1
GI50 (SF-539): > 100 µM (inactive)
GI50 (SW-620): > 100 µM (inactive)
GI50 (RXF 393): > 100 µM (inactive)
GI50 (SNB-75): 61.9 µM (inactive)
GI50 (KM12): > 100 µM (inactive)
GI50 (MDA-MB-231): > 100 µM (inactive)
GI50 (NCI-H23): > 100 µM (inactive)
GI50 (A549): > 100 µM (inactive)
GI50 (NCI-H522): > 100 µM (inactive)
GI50 (HOP-92): > 100 µM (inactive)
GI50 (TK-10): > 100 µM (inactive)
GI50 (UACC-257): > 100 µM (inactive)
GI50 (NCI/ADR-RES): > 100 µM (inactive)
GI50 (SF-295): > 100 µM (inactive)
GI50 (A498): > 100 µM (inactive)
GI50 (UACC-62): > 100 µM (inactive)
GI50 (HCT-116): > 100 µM (inactive)
GI50 (MDA-N): > 100 µM (inactive)
GI50 (CCRF-CEM): > 100 µM (inactive)
GI50 (ACHN): > 100 µM (inactive)
GI50 (MDA-MB-435): > 100 µM (inactive)
GI50 (DU-145): > 100 µM (inactive)
GI50 (OVCAR-3): > 100 µM (inactive)
GI50 (HOP-62): > 100 µM (inactive)
GI50 (786-0): > 100 µM (inactive)
GI50 (CAKI-1): > 100 µM (inactive)
GI50 (UO-31): > 100 µM (inactive)
GI50 (HCT-15): > 100 µM
GI50 (COLO 205): > 100 µM (inactive)
GI50 (NCI-H226): 68.1 µM (inactive)
GI50 (MCF7): > 100 µM (inactive)
GI50 (MOLT-4): > 100 µM (inactive)
GI50 (EKVX): 46.7 µM (inactive)
GI50 (HT-29): > 100 µM (inactive)
GI50 (OVCAR-8): > 100 µM (inactive)
GI50 (HL-60): > 100 µM (inactive)
GI50 (HCC 2998): > 100 µM (inactive)
GI50 (NCI-H460): > 100 µM (inactive)
GI50 (SK-OV-3): > 100 µM (inactive)
GI50 (BT-549): > 100 µM (inactive)
GI50 (OVCAR-4): > 100 µM (inactive)
GI50 (SF-268): > 100 µM (inactive)
GI50 (SK-MEL-2): > 100 µM (inactive)
GI50 (SR): > 100 µM (inactive)
GI50 (SN12C): > 100 µM (inactive)
GI50 (U-251): > 100 µM (inactive)
GI50 (Malme-3M): 83.2 µM (inactive)
GI50 (M14): > 100 µM (inactive)
GI50 (OVCAR-5): > 100 µM (inactive)
GI50 (SK-MEL-5): > 100 µM (inactive)
GI50 (IGROV-1): 38.7 µM (inactive)
GI50 (SNB-19): > 100 µM (inactive)
GI50 (PC-3): > 100 µM (inactive)
GI50 (LOX IMVI): > 100 µM (inactive)
GI50 (Hs-578T): > 100 µM (inactive)
GI50 (SK-MEL-28): > 100 µM (inactive)

COc1cccc(-c2nc(-c3cnccn3)n(COCCO)n2)c1
GI50 (SF-539): > 100 µM (inactive)
GI50 (SW-620): > 100 µM (inactive)
GI50 (RXF 393): > 100 µM (inactive)
GI50 (KM12): > 100 µM (inactive)
GI50 (MDA-MB-231): > 100 µM (inactive)
GI50 (NCI-H23): > 100 µM (inactive)
GI50 (A549): > 100 µM (inactive)
GI50 (NCI-H522): > 100 µM (inactive)
GI50 (HOP-92): > 100 µM (inactive)
GI50 (TK-10): > 100 µM (inactive)
GI50 (UACC-257): > 100 µM (inactive)
GI50 (NCI/ADR-RES): > 100 µM (inactive)
GI50 (T47D): > 100 µM (inactive)
GI50 (SF-295): > 100 µM (inactive)
GI50 (UACC-62): > 100 µM (inactive)
GI50 (HCT-116): > 100 µM (inactive)
GI50 (RPMI-8226): > 100 µM (inactive)
GI50 (MDA-N): > 100 µM (inactive)
GI50 (CCRF-CEM): > 100 µM (inactive)
GI50 (MDA-MB-435): > 100 µM (inactive)
GI50 (DU-145): > 100 µM (inactive)
GI50 (OVCAR-3): > 100 µM (inactive)
GI50 (HOP-62): > 100 µM (inactive)
GI50 (786-0): > 100 µM (inactive)
GI50 (UO-31): > 100 µM (inactive)
GI50 (HCT-15): > 100 µM
GI50 (COLO 205): > 100 µM (inactive)
GI50 (MCF7): > 100 µM (inactive)
GI50 (MOLT-4): > 100 µM (inactive)
GI50 (K562): > 100 µM (inactive)
GI50 (HT-29): > 100 µM (inactive)
GI50 (OVCAR-8): > 100 µM (inactive)
GI50 (HL-60): > 100 µM (inactive)
GI50 (HCC 2998): > 100 µM (inactive)
GI50 (NCI-H460): > 100 µM (inactive)
GI50 (SK-OV-3): > 100 µM (inactive)
GI50 (BT-549): > 100 µM (inactive)
GI50 (OVCAR-4): > 100 µM (inactive)
GI50 (SF-268): > 100 µM (inactive)
GI50 (SR): > 100 µM (inactive)
GI50 (SN12C): > 100 µM (inactive)
GI50 (U-251): > 100 µM (inactive)
GI50 (M14): > 100 µM (inactive)
GI50 (OVCAR-5): > 100 µM (inactive)
GI50 (SK-MEL-5): > 100 µM (inactive)
GI50 (IGROV-1): > 100 µM (inactive)
GI50 (SNB-19): > 100 µM (inactive)
GI50 (PC-3): > 100 µM (inactive)
GI50 (LOX IMVI): > 100 µM (inactive)
GI50 (SK-MEL-28): > 100 µM (inactive)

From ChEMBL document CHEMBL1201862, “PubChem BioAssay data set” (2004)
